Experimental data: patent US9309261B2, “Spirooxindole derivative and process for producing the same” (OKINAWA INSTITUTE OF SCIENCE AND TECHNOLOGY SCHOOL …, priority 2012, dated 2016)

How the values were obtained:
Hexokinase-II (HK-II) = molecular target: T1, Hexokinase-II (HK-II) (Homo sapiens, UniProt P52789); experiment: Hexokinase 2 inhibition (Transcreener ADP2 assay); type: biochemical; conditions: read-out: HK-II Inhibition ADP-FP (% inhibition at 20 μM)
T1 sequence (P52789 1-917): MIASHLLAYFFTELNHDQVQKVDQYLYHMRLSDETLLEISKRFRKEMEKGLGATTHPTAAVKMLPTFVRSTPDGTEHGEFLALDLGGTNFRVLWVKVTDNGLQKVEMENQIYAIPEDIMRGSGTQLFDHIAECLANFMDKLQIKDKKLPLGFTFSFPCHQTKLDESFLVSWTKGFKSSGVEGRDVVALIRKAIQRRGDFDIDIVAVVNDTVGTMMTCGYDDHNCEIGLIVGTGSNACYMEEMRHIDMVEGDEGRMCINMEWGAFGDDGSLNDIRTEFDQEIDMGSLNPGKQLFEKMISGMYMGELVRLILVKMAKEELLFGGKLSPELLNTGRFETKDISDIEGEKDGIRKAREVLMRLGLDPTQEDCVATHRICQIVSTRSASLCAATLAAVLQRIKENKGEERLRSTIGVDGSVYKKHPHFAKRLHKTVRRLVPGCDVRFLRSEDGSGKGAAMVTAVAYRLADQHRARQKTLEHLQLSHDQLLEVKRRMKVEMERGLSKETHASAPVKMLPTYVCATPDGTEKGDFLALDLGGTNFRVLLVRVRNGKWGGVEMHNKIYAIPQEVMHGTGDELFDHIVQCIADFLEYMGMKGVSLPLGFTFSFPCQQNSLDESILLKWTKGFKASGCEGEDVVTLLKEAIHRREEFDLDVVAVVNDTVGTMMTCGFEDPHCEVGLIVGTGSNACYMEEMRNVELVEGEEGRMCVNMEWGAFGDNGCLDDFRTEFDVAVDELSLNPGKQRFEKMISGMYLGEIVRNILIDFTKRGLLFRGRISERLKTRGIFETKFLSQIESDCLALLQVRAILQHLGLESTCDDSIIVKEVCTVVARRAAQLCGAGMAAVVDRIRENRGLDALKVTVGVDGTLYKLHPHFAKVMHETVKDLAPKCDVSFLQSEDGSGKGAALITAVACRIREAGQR
Excerpt: It is well known that tumor cells mainly rely on glycolysis for energy generation and intermediary metabolism, a phenomenon known as the Warburg effect. Hexokinase-II (HK-II), a key enzyme of glycolysis, catalyzes the first step in the conversion of glucose to glucose-6-phosphate. HK-II is highly expressed in many types of tumors and its expression is correlated with glucose uptake, tumor aggressiveness, and poor survival prognosis. Inhibition of HK-II activity attenuates tumor cell growth and induces apoptosis.
The test compounds were added to a typical reaction mixture of HK-II, and the produced ADP concentrations were determined using Transcreener® ADP^2 FI Assay (BellBrook Labs, Madison, Wis., USA).

[1] = Cytotoxicity: K562 cell growth inhibition (Cell Counting Kit-8, WST-8); type: cell-based; conditions: human, K562 cells
Method: K562 cells (American Type Culture Collection) were cultured in a culture medium containing 10% (v/v) fetal calf serum (FCS) (manufactures by Sigma) to logarithmic phase. The cells were seeded in 96-well microtiter plate at a density of 5000 cells/well in 100 μL cell culture medium and incubated at 37° C. and 5% CO2 in a humidified incubator overnight. The test compounds of various concentrations were added in a well at 10 fold concentration in 1/10 volume of medium without FCS. After 6-48 hrs incubation at 37° C. in the CO2 incubator, 10 μL solution of the viable cell counting reagent, Cell counting Kit-8 (5 mmol/L WST-8, 0.2 mmol/L 1-Methoxy PMS, 150 mmol/L NaCl) (manufactured by Dojindo) was added to each well, and reacted for 1 to 4 hours in the CO2 incubator. After the incubation, an absorbance of formazan, generated by reduction of WST-8 was determined at 450 nm using a microplate reader.
The assay readout is correlated with the viable cell numbers. Small values correspond to high inhibition and larger values to low inhibition of the cell growth. To determine IC50 values (i.e. the concentration inhibiting the cell growth by 50%) of the compound of formula I, several assays were made with a range of concentrations chosen empirically to give low, high and intermediate inhibition of the growth and determined using the curve fitting software.
IC50 values can be converted logarithmically to pIC50 values (−log IC50), in which higher values indicate exponentially greater potency. The IC50 value is not an absolute value but depends on experimental conditions e.g. concentrations employed.

[2] = tested on: tumor cells in which both WNT and KRas signaling pathways are activated; experiment: Selective lethality to tumor cells with activated WNT and KRas signaling; type: cell-based

For CCC[C@@H]1C/C(=N/NS(=O)(=O)c2ccc(C)cc2)C[C@@]2(O1)C(=O)Nc1ccccc12 (stereo in doubt), the melting point was 197 to 199 °C.

CCC[C@@H]1C[C@@H](NCc2ccccc2)C[C@@]2(O1)C(=O)Nc1ccccc12 [Compound 6, (2′S,4′R,6′R)-4′-(benzylamino)-6-propyl-3′,4′,5′,6-tetrahydrospiro[indoline-3,2′-pyran]-2-one] showed an inhibition at 20 µM (Hexokinase-II (HK-II)) of 37.7%.

With CCC[C@@H]1CC(=O)C[C@@]2(O1)C(=O)Nc1cccc(Br)c12 [Compound 3ac, (2′S,6′R)-4-bromo-6′-propyl-5′,6-dihydrospiro[indoline-3,2′-pyran]-2,4′(3′H)-dione] the IC50 ([1]; sample of 82% ee) was 16 µM and the “activity selectively lethal to tumor cells in which both WNT and KRas signaling pathways are activated” value (“activity selectively lethal” for short) [2] was “selectively lethal”.

For CCC[C@@H]1CC(=O)C[C@@]2(O1)C(=O)Nc1ccccc12 [Compound 3aa, (2′S,6′R)-6′-Propyl-5′,6′-dihydrospiro[indoline-3,2′-pyran)-2,4′(3′H)-dione], the melting point was 118 to 120 °C, the IC50 ([1]; sample of 99% ee) was 130 µM and the IC50 ([1]; sample with no ee given) was 125 µM.

In the case of CCC[C@@H]1CC(=O)C[C@@]2(O1)C(=O)Nc1ccc(Br)cc12 [Compound 3ae, (2′S,6′R)-5-bromo-6′-propyl-5′,6′-dihydrospiro[indoline-3,2′-pyran]-2,4′(3′H)-dione], the IC50 ([1]; sample with no ee given) is reported as 20 µM and the “activity selectively lethal” value [2] is reported as “selectively lethal”.

Work on C=CC[C@@]1(O)C[C@@H](CCC)O[C@]2(C1)C(=O)Nc1ccccc12 [Compound 7, (2′S,4′R,6′R)-4′-allyl-4′-hydroxy-6-propyl-3′,4′,5′,6-tetrahydrospiro[indoline-3,2′-pyran]-2-one] yielded a melting point of 189 to 191 °C, an IC50 ([1]; sample of 87% ee) greater than 212 µM and an IC50 ([1]; sample with no ee given) greater than 212 µM.

For CCC[C@@H]1C[C@@H](O)C[C@@]2(O1)C(=O)Nc1ccccc12 [Compound 5, (2′S,4′R,6′R)-4′-hydroxy-6′-propyl-3′,4′,5′,6′-tetrahydrospiro[indoline-3,2′-pyran]-2-one], the melting point was 169 to 171 °C, the IC50 ([1]; sample of 92% ee) was greater than 245 µM and the IC50 ([1]; sample with no ee given) was greater than 245 µM.

In the case of O=C1C[C@H](c2ccccc2)O[C@@]2(C1)C(=O)Nc1ccccc12 [Compound 3ja, (2′R,6′R)-6′-phenyl-5′,6′-dihydrospiro[indoline-3,2′-pyran]-2,4′(3′H)-dione], the inhibition at 20 µM (Hexokinase-II (HK-II)) is reported as 33.8% and the “activity selectively lethal” value [2] is reported as “selectively lethal”.

In the case of O=C1C[C@@H](CCN2C(=O)c3ccccc3C2=O)O[C@]2(C1)C(=O)Nc1ccccc12 [Compound 3ga, (2′S,6′R)-6′-(2-(1,3-dioxoisoindolin-2-yl)ethyl)-5′,6′-dihydrospiro[indoline-3,2′-pyran]-2,4′(3′H)-dione], the melting point is reported as 199 to 201 °C and the IC50 ([1]; sample of 91% ee) is reported as 113 µM.

With CCC[C@@H]1CC(=O)C[C@@]2(O1)C(=O)Nc1cc(Cl)ccc12 [Compound 3af, (2′S,6′R)-6-chloro-6′-propyl-5′,6′-dihydrospiro[indoline-3,2′-pyran]-2,4′(3′H)-dione] the IC50 ([1]; sample with no ee given) was 21 µM and the “activity selectively lethal” value [2] was “selectively lethal”.

With CCC[C@@H]1CC(=O)C[C@@]2(O1)C(=O)Nc1cccc(Cl)c12 [Compound 3ab, (2′S,6′R)-4-chloro-6′-propyl-5′,6′-dihydrospiro[indoline-3,2′-pyran]-2,4′(3′H)-dione] the IC50 ([1]; sample with no ee given) was 15 µM and the “activity selectively lethal” value [2] was “selectively lethal”.
